Reference: ChEMBL document CHEMBL4715910, “Insights into non-peptide small-molecule inhibitors of the PD-1/PD-L1 interaction: Development and perspective” (Bioorg Med Chem, 2021)

How the values were obtained:
[1] = molecular target: Programmed cell death protein 1/Programmed cell death 1 ligand 1 (Homo sapiens, UniProt Q15116+Q9NZQ7); test: Inhibition of PD-1/PDL1 (unknown origin) by ELISA; format: protein-complex assay
[2] = molecular target: Programmed cell death 1 ligand 1 (Homo sapiens) (UniProt Q9NZQ7)
Description: Binding affinity to human PDL1 (18 to 134 residues) expressed in Escherichia coli BL21 (DE3) cells assessed as melting temperature by differential scanning fluorimetry (Rvb = 35.4 degreec)

[3] = tested on: Jurkat; test: Cytotoxicity against human Jurkat T cells assessed as reduction in cell viability; format: cell-based

Sequence of Programmed cell death protein 1/Programmed cell death 1 ligand 1 (Q15116 whole entry): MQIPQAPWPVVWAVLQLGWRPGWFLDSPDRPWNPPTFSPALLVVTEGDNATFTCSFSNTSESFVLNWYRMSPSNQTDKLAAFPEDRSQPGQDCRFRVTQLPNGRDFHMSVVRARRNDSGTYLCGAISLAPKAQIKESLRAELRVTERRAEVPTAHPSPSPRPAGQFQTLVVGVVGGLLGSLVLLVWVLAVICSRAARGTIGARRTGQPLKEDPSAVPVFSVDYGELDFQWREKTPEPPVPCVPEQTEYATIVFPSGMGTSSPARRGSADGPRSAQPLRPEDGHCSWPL
Sequence of Programmed cell death protein 1/Programmed cell death 1 ligand 1 (Q9NZQ7 whole entry): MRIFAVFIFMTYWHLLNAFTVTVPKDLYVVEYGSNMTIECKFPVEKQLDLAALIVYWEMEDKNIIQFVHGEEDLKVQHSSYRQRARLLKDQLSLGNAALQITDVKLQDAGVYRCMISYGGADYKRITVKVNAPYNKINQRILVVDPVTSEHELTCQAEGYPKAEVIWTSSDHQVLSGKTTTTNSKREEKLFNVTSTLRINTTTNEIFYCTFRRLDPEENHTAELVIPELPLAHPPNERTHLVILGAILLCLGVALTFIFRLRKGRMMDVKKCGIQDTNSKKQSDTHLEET
Sequence of Programmed cell death 1 ligand 1 (Homo sapiens) (Q9NZQ7 whole entry): as above

Row | Structure (SMILES) | IC50 [1] [nM] | other results
1 | Cc1c(COc2ccc(CN3CCCC[C@H]3C(=O)O)cc2Br)cccc1-c1cccc(COc2ccc(CN3CCCC[C@H]3C(=O)O)cc2Br)c1C | ≤ 10 | –
2 | Cc1c(Nc2nccc3c(CN4CCCCC4C(=O)O)ccnc23)cccc1-c1ccccc1 (stereo not given) | ≤ 10 | –
3 | COc1nc(OCc2cccc(-c3ccccc3)c2C)ccc1CNCCNC(C)=O | – | Tm [2]: 48.4 °C
4 | Cc1c(-c2ccccc2)cccc1-c1nc2cc(CN3CCCC[C@H]3C(=O)O)cc(C)c2o1 | ≤ 10 | –
5 | Cc1c(-c2ccccc2)cccc1-c1nc2cc(CNCCO)ccc2o1 | ≤ 10 | –
6 | Cc1cc(C(=O)Nc2cccc(-c3ccccc3)c2C)ncc1CN1CCCC[C@H]1C(=O)O | ≤ 10 | –
7 | Cc1cc(CN[C@H](CO)C(=O)O)c(OCc2cccc(C#N)c2)cc1OCc1cccc(-c2ccc3c(c2)OCCO3)c1C | – | IC50 [3]: < 100 nM
8 | Cc1cc(C(=O)Nc2cccc(-c3ccccc3)c2C)ncc1CNCCO | ≤ 10 | –
9 | Cc1c(Nc2nccc3ccc(CNCCO)nc23)cccc1-c1ccccc1 | ≤ 10 | –
10 | Cc1cc(CNCCO)ccc1OCc1cccc(-c2cccc(COc3ccc(CNCCO)cc3C)c2C)c1C | ≤ 10 | –
